Results from patent publication US20260262643A1, “HERBICIDAL BENZOXAZINES” (FMC CORPORATION, priority 2022, published 2026).

Columns and labels:
corn [1] = assay: Test C preemergence; type: in vivo, Zea mays
Procedure, shortened: (§1)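 Visual injury ratings on a 0–100 scale (100 = complete control) were made against untreated controls 10 days after treatment in the greenhouse. Compounds, formulated with surfactant in non-phytotoxic solvent, were sprayed on soil preemergence or onto one- to two-leaf plants 2–10 cm tall postemergence.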

sedge, umbrella = assay: Test D flooded paddy test; type: in vivo, Cyperus difformis; settings: 250 g ai/ha, applied to paddy water, visual rating after 13 to 14 days, scale 0 to 100 (0 no effect, 100 complete control)
Procedure, shortened: (§2)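 Plants grown to the 2-leaf stage; pots flooded to 3 cm above soil at treatment and held at that depth throughout. Test compounds applied directly to the paddy water. After 13 to 14 days in a greenhouse, response was rated visually versus controls on a 0 (no effect) to 100 (complete control) scale.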

rice = assay: Test D flooded paddy test; type: in vivo, Oryza sativa; settings: 250 g ai/ha, applied to paddy water, visual rating after 13 to 14 days, scale 0 to 100 (0 no effect, 100 complete control)
Procedure, shortened: as §2

corn [2] = assay: Test C postemergence; type: in vivo, Zea mays; settings: 10 days, 0 to 100 scale (0 no effect, 100 complete control)
Procedure, shortened: as §1

wheat [3] = assay: Test C postemergence; type: in vivo, Triticum aestivum; settings: 10 days, 0 to 100 scale (0 no effect, 100 complete control)
Procedure, shortened: as §1

soybean [4] = assay: Test C postemergence; type: in vivo, Glycine max; settings: 10 days, 0 to 100 scale (0 no effect, 100 complete control)
Procedure, shortened: as §1

barnyardgrass [5] = assay: Test C postemergence; type: in vivo, Echinochloa crusgalli; settings: 10 days, 0 to 100 scale (0 no effect, 100 complete control)
Procedure, shortened: as §1

barnyardgrass [6] = assay: Test D flooded paddy test; type: in vivo, Echinochloa crus-galli; settings: 250 g ai/ha, applied to paddy water, visual rating after 13 to 14 days, scale 0 to 100 (0 no effect, 100 complete control)
Procedure, shortened: as §2

green foxtail [7] = assay: Test C preemergence; type: in vivo, Setaria viridis
Procedure, shortened: as §1

oat, wild = assay: Test C postemergence; type: in vivo, Avena fatua; settings: 10 days, 0 to 100 scale (0 no effect, 100 complete control)
Procedure, shortened: as §1

wheat [8] = assay: Test C preemergence; type: in vivo, Triticum aestivum
Procedure, shortened: as §1

green foxtail [9] = assay: Test C postemergence; type: in vivo, Setaria viridis; settings: 10 days, 0 to 100 scale (0 no effect, 100 complete control)
Procedure, shortened: as §1

barnyardgrass [10] = assay: Test C preemergence; type: in vivo, Echinochloa crusgalli
Procedure, shortened: as §1

ryegrass, Italian [11] = assay: Test C postemergence; type: in vivo, Lolium multiflorum; settings: 10 days, 0 to 100 scale (0 no effect, 100 complete control)
Procedure, shortened: as §1

soybean [12] = assay: Test C preemergence; type: in vivo, Glycine max
Procedure, shortened: as §1

ragweed [13] = assay: Test C postemergence; type: in vivo, Ambrosia artemisiifolia; settings: 10 days, 0 to 100 scale (0 no effect, 100 complete control)
Procedure, shortened: as §1

ryegrass, Italian [14] = assay: Test C preemergence; type: in vivo, Lolium multiflorum
Procedure, shortened: as §1

pigweed, palmer [15] = assay: Test C preemergence; type: in vivo, Amaranthus palmeri
Procedure, shortened: as §1

ragweed [16] = assay: Test C preemergence; type: in vivo, Ambrosia artemisiifolia
Procedure, shortened: as §1

ducksalad = assay: Test D flooded paddy test; type: in vivo, Heteranthera limosa; settings: 250 g ai/ha, applied to paddy water, visual rating after 13 to 14 days, scale 0 to 100 (0 no effect, 100 complete control)
Procedure, shortened: as §2

blackgrass [17] = assay: Test C preemergence; type: in vivo, Alopecurus myosuroides
Procedure, shortened: as §1

pigweed, palmer [18] = assay: Test C postemergence; type: in vivo, Amaranthus palmeri; settings: 10 days, 0 to 100 scale (0 no effect, 100 complete control)
Procedure, shortened: as §1

kochia [19] = assay: Test C preemergence; type: in vivo, Bassia scoparia
Procedure, shortened: as §1

galium = assay: Test C postemergence; type: in vivo, Galium aparine; settings: 10 days, 0 to 100 scale (0 no effect, 100 complete control)
Procedure, shortened: as §1

kochia [20] = assay: Test C postemergence; type: in vivo, Bassia scoparia; settings: 10 days, 0 to 100 scale (0 no effect, 100 complete control)
Procedure, shortened: as §1

blackgrass [21] = assay: Test C postemergence; type: in vivo, Alopecurus myosuroides; settings: 10 days, 0 to 100 scale (0 no effect, 100 complete control)
Procedure, shortened: as §1

horseweed = assay: Test C postemergence; type: in vivo, Erigeron canadensis; settings: 10 days, 0 to 100 scale (0 no effect, 100 complete control)
Procedure, shortened: as §1

[22] = 500 g ai/ha, preemergence, 0 to 100 scale (0 no effect, 100 complete control)
[23] = Preemergence, 125 g ai/ha, 0 to 100 scale, 0 no effect, 100 complete control

Question: Which results are given for `Cc1ccc(-n2cnc(C(C)O)n2)cc1C(=O)N1CC(C)Oc2c(Cl)cccc21` (mixture of isomers) [Compound 358]?
Answer: Corn plant response rating (corn [1]; [22]): 70; Plant response rating, Corn (corn [1]; [23]): 50; Plant response rating, Sedge, Umbrella (Flood) (sedge, umbrella): 90; Plant response rating, Rice (Flood) (rice): 15; Plant response rating, Corn (corn [2]; 500 g ai/ha, postemergence): 90; Plant response rating, Corn (corn [2]; Postemergence, 125 g ai/ha): 90; Plant response rating, Wheat (wheat [3]; 500 g ai/ha, postemergence): 80; Plant response rating, Wheat (wheat [3]; Postemergence, 125 g ai/ha): 50; Plant response rating, Soybean (soybean [4]; 500 g ai/ha, postemergence): 100; Plant response rating, Soybean (soybean [4]; Postemergence, 125 g ai/ha): 100; Plant response rating, Barnyardgrass (barnyardgrass [5]; 500 g ai/ha, postemergence): 100; Plant response rating, Barnyardgrass (barnyardgrass [5]; Postemergence, 125 g ai/ha): 90; Plant response rating, Barnyardgrass (Flood) (barnyardgrass [6]): 30; Foxtail, Green plant response rating (green foxtail [7]; [22]): 100; Plant response rating, Foxtail, Green (green foxtail [7]; [23]): 100; Plant response rating, Oat, Wild (oat, wild; 500 g ai/ha, postemergence): 80; Plant response rating, Oat, Wild (oat, wild; Postemergence, 125 g ai/ha): 30; Wheat plant response rating (wheat [8]; [22]): 90; Plant response rating, Wheat (wheat [8]; [23]): 50; Plant response rating, Foxtail, Green (green foxtail [9]; 500 g ai/ha, postemergence): 90; Plant response rating, Foxtail, Green (green foxtail [9]; Postemergence, 125 g ai/ha): 90; Barnyardgrass plant response rating (barnyardgrass [10]; [22]): 100; Plant response rating, Barnyardgrass (barnyardgrass [10]; [23]): 100; Plant response rating, Ryegrass, Italian (ryegrass, Italian [11]; 500 g ai/ha, postemergence): 100; Plant response rating, Ryegrass, Italian (ryegrass, Italian [11]; Postemergence, 125 g ai/ha): 90; Soybean plant response rating (soybean [12]; [22]): 100; Plant response rating, Soybean (soybean [12]; [23]): 100; Plant response rating, Ragweed (ragweed [13]; 500 g ai/ha, postemergence): 80; Plant response rating, Ragweed (ragweed [13]; Postemergence, 125 g ai/ha): 50; Ryegrass, Italian plant response rating (ryegrass, Italian [14]; [22]): 100; Plant response rating, Ryegrass, Italian (ryegrass, Italian [14]; [23]): 90; Pigweed, Palmer plant response rating (pigweed, palmer [15]; [22]): 100; Plant response rating, Pigweed, Palmer (pigweed, palmer [15]; [23]): 100; Ragweed plant response rating (ragweed [16]; [22]): 90; Plant response rating, Ragweed (ragweed [16]; [23]): 70; Plant response rating, Ducksalad (Flood) (ducksalad): 95; Blackgrass plant response rating (blackgrass [17]; [22]): 90; Plant response rating, Blackgrass (blackgrass [17]; [23]): 80; Plant response rating, Pigweed, Palmer (pigweed, palmer [18]; 500 g ai/ha, postemergence): 80; Plant response rating, Pigweed, Palmer (pigweed, palmer [18]; Postemergence, 125 g ai/ha): 50; Kochia plant response rating (kochia [19]; [22]): 100; Plant response rating, Kochia (kochia [19]; [23]): 20; Plant response rating, Galium (galium; 500 g ai/ha, postemergence): 100; Plant response rating, Galium (galium; Postemergence, 125 g ai/ha): 100; Plant response rating, Kochia (kochia [20]; 500 g ai/ha, postemergence): 70; Plant response rating, Kochia (kochia [20]; Postemergence, 125 g ai/ha): 40; Plant response rating, Blackgrass (blackgrass [21]; 500 g ai/ha, postemergence): 100; Plant response rating, Blackgrass (blackgrass [21]; Postemergence, 125 g ai/ha): 90; Plant response rating, Horseweed (horseweed; 500 g ai/ha, postemergence): 90; Plant response rating, Horseweed (horseweed; Postemergence, 125 g ai/ha): 70
